From ChEMBL document CHEMBL1201862, “PubChem BioAssay data set” (2004)
Active and inactive are the calls of the source. Rule as the data show it, for most assays here: actives have a measured EC50 and inactives only a lower limit.

Legend:
[1] = biological target: Multidrug resistance protein CDR1 (Candida albicans, UniProt P43071); experiment: CaCDR1 efflux pump inhibitors in yeast, dose response, S. cerevisiae AD1-8u, singleplex, Cherry Pick1 hits (AID 588606); assay type: functional
[2] = biological target: T1, Heat shock factor protein 1 (Mus musculus, UniProt P38532); experiment: inhibition of MG132-induced HSE-luciferase signal, confirmation, cell-based, NIH3T3, luminescence, dose retest (AID 2382); assay type: functional;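 also: NIH3T3 fibroblasts with HSF1-driven luciferase reporter stressed by proteasome inhibitor MG132; luminescence from HSF1-driven luciferase expression after 8 hours of MG132 stress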
T1 sequence (P38532 whole entry): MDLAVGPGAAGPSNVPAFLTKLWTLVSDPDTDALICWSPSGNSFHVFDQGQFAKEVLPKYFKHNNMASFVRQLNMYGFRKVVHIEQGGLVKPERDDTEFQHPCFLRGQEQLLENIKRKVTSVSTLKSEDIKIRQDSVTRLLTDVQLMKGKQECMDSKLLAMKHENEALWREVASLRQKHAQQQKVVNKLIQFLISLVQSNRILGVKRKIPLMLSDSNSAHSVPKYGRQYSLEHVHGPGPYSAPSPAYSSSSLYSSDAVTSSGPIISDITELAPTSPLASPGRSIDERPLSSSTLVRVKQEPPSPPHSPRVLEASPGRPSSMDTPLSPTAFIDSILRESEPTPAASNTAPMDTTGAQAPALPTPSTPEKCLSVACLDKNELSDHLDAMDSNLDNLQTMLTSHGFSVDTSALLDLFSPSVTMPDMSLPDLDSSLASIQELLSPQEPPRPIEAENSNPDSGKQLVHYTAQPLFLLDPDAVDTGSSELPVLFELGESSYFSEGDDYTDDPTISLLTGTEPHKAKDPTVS

[3] = cytotoxicity toward DRD oncogenic fibroblasts, dose response, cell-based, non-viral oncogenic, luminescence (AID 1934); assay type: functional; details: Homo sapiens
[4] = system: Streptococcus sp. 'group A'; experiment: growth inhibition of control SK(-) GAS strain, dose response, counter-screen for streptokinase expression inhibitor project, luminescence, kanamycin, BacTiterGlo, confirmation (AID 1900); assay type: functional, organism-based
[5] = biological target: T2, Replicative DNA helicase DnaB (Mycobacterium tuberculosis, UniProt P9WMR3); experiment: DnaB intein splicing inhibitors, dose response, biochemical, cell-free fluorescence (AID 449749); assay type: functional
T2 sequence (P9WMR3 whole entry): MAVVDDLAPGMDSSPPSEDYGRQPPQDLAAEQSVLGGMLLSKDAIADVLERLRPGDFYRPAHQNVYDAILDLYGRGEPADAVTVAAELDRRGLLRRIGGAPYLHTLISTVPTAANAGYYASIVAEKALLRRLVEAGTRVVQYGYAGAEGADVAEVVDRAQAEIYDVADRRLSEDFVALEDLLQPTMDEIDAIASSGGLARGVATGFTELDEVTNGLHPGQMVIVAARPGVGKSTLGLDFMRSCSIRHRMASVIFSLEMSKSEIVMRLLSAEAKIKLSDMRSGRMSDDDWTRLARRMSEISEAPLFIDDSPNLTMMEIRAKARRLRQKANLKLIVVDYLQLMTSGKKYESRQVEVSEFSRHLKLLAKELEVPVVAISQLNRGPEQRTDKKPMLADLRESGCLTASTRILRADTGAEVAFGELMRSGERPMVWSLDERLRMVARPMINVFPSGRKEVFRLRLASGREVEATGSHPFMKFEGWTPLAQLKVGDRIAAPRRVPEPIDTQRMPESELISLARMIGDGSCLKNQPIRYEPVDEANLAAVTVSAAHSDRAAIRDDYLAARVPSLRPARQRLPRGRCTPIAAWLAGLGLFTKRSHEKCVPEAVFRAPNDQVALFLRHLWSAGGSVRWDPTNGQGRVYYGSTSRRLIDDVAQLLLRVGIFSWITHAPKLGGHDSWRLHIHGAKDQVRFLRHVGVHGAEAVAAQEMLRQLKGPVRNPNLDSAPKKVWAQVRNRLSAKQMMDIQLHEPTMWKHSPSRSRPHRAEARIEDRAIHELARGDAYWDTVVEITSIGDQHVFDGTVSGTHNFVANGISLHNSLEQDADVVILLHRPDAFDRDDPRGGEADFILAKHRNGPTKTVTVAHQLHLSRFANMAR

[6] = cytotoxicity in HEK-293T cells, dose response, cytotoxicity control for BCR NF-kB inhibitor project, luminescence, B-cell screen hits (AID 489021); assay type: functional, cell-based;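 also: HEK-293T cells carrying an NF-kB luciferase reporter; cells exposed to compound for about 14 hours before viability readout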
Streptokinase A = biological target: T3, Streptokinase A (Streptococcus pyogenes serotype M1, UniProt P10520); experiment: S. pyogenes streptokinase expression inhibitors, potency, dose response, plasminogen activation absorbance, OD405 (AID 1914); assay type: functional, Streptococcus pyogenes M1 GAS;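 also: secreted streptokinase activity via plasminogen activation per viability signal from cell pellet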
T3 sequence (P10520 whole entry): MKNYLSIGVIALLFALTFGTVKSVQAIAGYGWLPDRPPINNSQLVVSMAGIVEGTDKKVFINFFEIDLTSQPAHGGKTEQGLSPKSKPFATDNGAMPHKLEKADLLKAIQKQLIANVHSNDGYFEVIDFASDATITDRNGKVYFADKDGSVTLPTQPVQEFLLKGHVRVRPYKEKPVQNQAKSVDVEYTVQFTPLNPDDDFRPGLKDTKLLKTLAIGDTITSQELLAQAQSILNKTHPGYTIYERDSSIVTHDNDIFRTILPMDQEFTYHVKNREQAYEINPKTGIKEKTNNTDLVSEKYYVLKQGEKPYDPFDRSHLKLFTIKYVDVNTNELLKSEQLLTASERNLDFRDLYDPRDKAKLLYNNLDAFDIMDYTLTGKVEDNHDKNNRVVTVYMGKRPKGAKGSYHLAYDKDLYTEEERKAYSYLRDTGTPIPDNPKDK

BJ [7] = experiment: cytotoxicity toward BJ-TERT-LT-ST fibroblasts, dose response, cell-based, RAS-independent, luminescence (AID 1935); assay type: functional; details: Homo sapiens;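 also: BJ fibroblasts immortalized with TERT plus LT and ST oncogenes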
BJ [8] = experiment: cytotoxicity toward BJ-TERT fibroblasts, dose response, cell-based, RAS-independent, luminescence (AID 1933); assay type: functional; details: Homo sapiens
INS1 = experiment: beta cell apoptosis inhibitors, cytokine rescue, dose response, luminescence, retest (AID 449756); assay type: functional, cell-based; details: Rattus norvegicus;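 also: cell death triggered by IL-1 beta plus TNF-alpha plus IFN-gamma mixture; protective hits raise ATP signal compared with cytokine alone wells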
BJ [9] = experiment: cytotoxicity toward Ras-transformed BJeLR fibroblasts, dose response, cell-based, alamar blue fluorescence, cherrypicked samples (AID 2631); assay type: functional; details: Homo sapiens;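 also: confirmatory dose-response assay in RAS-dependent BJ fibroblasts engineered with TERT, LT and ST, with cytotoxicity read by fluorescence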
Protein RecA = biological target: T4, Protein RecA (Mycobacterium tuberculosis, UniProt P9WHJ3); experiment: Fluorescence Cell-Free Homogeneous Dose Retest to Identify Inhibitors of RecA-Intein Splicing Activity. [Related pubchem assays (depositor defined):AID2097, AID2223, AID489010, AID492950]; assay type: functional
T4 sequence (P9WHJ3 whole entry): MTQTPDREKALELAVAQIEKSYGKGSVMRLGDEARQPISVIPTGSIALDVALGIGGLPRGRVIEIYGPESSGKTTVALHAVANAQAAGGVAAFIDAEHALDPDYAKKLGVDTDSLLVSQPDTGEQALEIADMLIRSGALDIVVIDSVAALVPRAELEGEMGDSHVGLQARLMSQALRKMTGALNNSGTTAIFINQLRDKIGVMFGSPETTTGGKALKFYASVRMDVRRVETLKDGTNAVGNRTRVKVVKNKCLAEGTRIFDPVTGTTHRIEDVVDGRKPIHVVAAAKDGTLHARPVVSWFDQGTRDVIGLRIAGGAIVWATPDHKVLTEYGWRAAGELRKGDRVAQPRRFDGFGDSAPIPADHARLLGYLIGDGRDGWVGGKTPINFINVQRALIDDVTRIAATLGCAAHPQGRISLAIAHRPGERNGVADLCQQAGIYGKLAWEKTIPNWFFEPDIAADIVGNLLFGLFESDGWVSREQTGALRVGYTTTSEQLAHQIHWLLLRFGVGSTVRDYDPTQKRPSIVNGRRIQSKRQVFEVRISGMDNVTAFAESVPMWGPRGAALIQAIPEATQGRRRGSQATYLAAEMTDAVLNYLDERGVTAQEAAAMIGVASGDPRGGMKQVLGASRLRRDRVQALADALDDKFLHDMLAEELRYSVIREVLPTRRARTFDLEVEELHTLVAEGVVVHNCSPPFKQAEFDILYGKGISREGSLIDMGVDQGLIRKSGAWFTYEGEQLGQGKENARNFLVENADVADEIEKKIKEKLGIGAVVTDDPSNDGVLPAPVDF

BJ [10] = experiment: cells; assay type: functional, cell-based; details: Homo sapiens
Streptococcus = experiment: Group A Streptococcus viability loss, dose response, counter-screen for streptokinase expression inhibitor project, luminescence, BacTiterGlo (AID 1915); assay type: functional, organism-based;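 also: potency for reduction of bacterial viability or growth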
[11] = biological target: T5, DNA dC->dU-editing enzyme APOBEC-3A (Homo sapiens, UniProt P31941); experiment: SAR analysis of small molecule inhibitors of APOBEC3A DNA Deaminase via a fluorescence-based single-stranded DNA deaminase assay.; assay type: functional; details: read-out: IC50_Mean
T5 sequence (P31941 whole entry): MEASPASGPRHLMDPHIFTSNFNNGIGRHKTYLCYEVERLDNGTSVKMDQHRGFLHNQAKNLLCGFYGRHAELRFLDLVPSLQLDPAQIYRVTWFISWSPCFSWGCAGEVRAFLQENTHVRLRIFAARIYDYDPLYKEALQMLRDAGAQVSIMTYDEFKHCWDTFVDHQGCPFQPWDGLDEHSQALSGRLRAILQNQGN

[12] = biological target: T6, DNA dC->dU-editing enzyme APOBEC-3G (Homo sapiens, UniProt Q9HC16); experiment: APOBEC3G deaminase inhibitors, SAR follow-up, biochemical, fluorescence, single-stranded DNA substrate (AID 602136); assay type: functional; details: read-out: IC50_Mean
T6 sequence (Q9HC16 whole entry): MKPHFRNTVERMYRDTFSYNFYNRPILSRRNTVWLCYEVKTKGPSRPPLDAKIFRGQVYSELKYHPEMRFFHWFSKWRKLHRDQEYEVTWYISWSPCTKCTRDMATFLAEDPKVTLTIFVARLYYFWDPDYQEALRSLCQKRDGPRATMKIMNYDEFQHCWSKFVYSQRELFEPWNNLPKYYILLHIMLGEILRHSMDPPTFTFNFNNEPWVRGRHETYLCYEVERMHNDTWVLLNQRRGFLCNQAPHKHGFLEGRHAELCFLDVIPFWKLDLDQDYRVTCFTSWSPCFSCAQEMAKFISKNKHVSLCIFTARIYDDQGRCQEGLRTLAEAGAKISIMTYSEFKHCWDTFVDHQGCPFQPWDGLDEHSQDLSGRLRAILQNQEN

[13] = SAR analysis of small molecule activators of Apaf-1 using a LZ-Caspase-9/Caspase-3 Fluorescent Selectivity assay - Set 2.; assay type: functional; details: read-out: EC50_Mean
[14] = biological target: T7, Apoptotic protease-activating factor 1 (Homo sapiens, UniProt O14727); experiment: SAR analysis of small molecule Activators of Apaf-1 in a Fluorescent assay - set 2.; assay type: functional; details: read-out: EC50_Mean
T7 sequence (O14727 whole entry): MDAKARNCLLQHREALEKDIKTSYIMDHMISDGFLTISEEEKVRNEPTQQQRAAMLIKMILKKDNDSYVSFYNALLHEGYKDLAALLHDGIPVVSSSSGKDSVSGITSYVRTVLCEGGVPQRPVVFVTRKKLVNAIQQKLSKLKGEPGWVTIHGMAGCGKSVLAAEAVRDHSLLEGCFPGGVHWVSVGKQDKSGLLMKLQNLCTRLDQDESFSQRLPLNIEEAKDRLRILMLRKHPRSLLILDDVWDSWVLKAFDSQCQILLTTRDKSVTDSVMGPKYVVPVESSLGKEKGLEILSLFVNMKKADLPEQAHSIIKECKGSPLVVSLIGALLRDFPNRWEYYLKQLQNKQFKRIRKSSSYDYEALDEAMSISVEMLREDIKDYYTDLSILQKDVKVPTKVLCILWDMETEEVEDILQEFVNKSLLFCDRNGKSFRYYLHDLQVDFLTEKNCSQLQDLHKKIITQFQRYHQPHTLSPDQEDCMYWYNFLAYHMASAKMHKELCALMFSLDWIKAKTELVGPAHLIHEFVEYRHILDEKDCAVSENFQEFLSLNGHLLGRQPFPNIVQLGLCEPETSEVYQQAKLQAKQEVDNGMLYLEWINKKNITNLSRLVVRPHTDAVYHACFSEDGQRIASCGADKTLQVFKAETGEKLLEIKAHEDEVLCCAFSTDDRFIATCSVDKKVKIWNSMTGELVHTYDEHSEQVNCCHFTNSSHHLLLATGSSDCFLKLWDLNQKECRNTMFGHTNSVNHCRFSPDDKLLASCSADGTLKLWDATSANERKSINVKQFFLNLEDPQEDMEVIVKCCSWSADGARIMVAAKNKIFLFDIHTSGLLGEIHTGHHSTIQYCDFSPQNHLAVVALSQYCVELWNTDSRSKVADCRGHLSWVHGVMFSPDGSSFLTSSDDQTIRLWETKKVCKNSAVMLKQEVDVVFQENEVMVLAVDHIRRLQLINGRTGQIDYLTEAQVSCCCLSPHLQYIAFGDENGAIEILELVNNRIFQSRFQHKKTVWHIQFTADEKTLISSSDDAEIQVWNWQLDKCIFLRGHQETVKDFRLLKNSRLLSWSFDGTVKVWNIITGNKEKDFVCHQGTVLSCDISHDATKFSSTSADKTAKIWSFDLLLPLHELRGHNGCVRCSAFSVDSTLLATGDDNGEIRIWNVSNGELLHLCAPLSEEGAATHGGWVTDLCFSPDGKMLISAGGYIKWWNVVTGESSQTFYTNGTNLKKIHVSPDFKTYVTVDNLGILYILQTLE

[15] = biological target: T7, Apoptotic protease-activating factor 1; experiment: SAR analysis of small molecule Activators of Apaf-1 in a Fluorescent assay.; assay type: functional; details: read-out: EC50_Mean
[16] = biological target: T5, DNA dC->dU-editing enzyme APOBEC-3A; experiment: SAR analysis of small molecule inhibitors of APOBEC3A DNA Deaminase via a fluorescence-based single-stranded DNA deaminase assay - Set 2.; assay type: functional; details: read-out: IC50_Mean
[17] = biological target: T6, DNA dC->dU-editing enzyme APOBEC-3G; experiment: SAR analysis of small molecule inhibitors of APOBEC3G DNA Deaminase via a fluorescence-based single-stranded DNA deaminase assay - Set 2.; assay type: functional; details: read-out: IC50_Mean
[18] = biological target: Serine/threonine-protein kinase pim-1 (Homo sapiens, UniProt P11309); assay type: functional
Sequence of Serine/threonine-protein kinase pim-1 (P11309 whole entry): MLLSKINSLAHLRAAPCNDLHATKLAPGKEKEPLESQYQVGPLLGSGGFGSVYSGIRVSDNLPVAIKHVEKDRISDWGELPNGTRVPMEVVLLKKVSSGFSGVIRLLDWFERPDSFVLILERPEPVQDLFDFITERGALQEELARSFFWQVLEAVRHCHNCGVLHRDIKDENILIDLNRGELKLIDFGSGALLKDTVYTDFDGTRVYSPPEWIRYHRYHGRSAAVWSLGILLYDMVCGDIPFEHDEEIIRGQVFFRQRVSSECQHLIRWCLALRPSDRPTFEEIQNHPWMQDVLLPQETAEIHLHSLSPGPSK

Sequence of Multidrug resistance protein CDR1 (P43071 whole entry, looked up): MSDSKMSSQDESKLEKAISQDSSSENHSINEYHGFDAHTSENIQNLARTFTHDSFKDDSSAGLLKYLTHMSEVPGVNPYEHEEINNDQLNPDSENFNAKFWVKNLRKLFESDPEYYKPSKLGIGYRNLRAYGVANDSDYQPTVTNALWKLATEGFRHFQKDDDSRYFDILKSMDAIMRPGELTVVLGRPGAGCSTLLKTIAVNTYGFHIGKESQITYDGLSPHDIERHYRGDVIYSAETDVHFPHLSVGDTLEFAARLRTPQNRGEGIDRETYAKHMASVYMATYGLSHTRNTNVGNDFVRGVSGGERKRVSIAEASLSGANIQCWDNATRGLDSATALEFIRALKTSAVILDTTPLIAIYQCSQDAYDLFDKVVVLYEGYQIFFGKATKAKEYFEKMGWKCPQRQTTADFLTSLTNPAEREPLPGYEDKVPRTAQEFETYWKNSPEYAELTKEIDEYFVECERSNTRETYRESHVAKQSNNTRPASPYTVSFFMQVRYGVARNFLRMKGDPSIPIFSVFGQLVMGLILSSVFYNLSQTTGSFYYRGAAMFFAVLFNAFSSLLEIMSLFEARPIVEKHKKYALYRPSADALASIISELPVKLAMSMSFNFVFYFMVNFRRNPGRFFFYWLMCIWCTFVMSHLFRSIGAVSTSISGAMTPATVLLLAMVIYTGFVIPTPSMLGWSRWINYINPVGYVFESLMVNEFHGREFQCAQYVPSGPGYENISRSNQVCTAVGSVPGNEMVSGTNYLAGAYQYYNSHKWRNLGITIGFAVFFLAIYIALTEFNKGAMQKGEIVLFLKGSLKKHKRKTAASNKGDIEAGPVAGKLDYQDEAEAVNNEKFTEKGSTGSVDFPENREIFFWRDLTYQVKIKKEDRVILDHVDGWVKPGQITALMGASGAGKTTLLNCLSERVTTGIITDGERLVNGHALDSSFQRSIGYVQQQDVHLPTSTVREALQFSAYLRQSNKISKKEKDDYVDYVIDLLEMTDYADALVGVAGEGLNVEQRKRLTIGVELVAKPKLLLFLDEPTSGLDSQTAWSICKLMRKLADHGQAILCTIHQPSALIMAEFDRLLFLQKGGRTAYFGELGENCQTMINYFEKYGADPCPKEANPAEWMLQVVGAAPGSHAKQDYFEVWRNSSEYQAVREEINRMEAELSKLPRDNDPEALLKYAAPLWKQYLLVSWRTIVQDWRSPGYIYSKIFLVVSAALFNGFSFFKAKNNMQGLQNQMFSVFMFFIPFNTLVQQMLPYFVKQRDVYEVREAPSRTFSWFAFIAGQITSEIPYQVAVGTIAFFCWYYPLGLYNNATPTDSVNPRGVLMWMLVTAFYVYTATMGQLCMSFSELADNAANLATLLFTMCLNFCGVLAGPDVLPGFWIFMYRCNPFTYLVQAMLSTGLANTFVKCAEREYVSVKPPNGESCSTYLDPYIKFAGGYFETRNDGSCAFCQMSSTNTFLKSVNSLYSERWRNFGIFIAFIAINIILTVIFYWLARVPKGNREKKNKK

O=C1C(Cc2ccccc2)Nc2ncnc(N3CCN(c4ccccc4)CC3)c2N1Cc1ccccc1 (stereo not given)
EC50 [1]: 14.7 µM (active)
EC50 [2]: > 195 µM (not active)

O=C(NC(=S)Nc1ccc2[nH]c(=O)[nH]c2c1)c1cncc(Br)c1
EC50 [1]: 2.09 µM (active)

CC1CCc2c(sc3nc(C(C)(C)C)nc(N4CCN(C(=O)CCl)CC4)c23)C1 (stereo not given)
EC50 [3]: 5.42 µM (inconclusive)
EC50 [4]: 2.96 µM (active)
AC50 [5]: 2.45 µM (active)
IC50 [6]: > 80 µM (inactive)
EC50 (Streptokinase A): 1.79 µM (active)
EC50 (BJ [7]): 4.69 µM (inconclusive)
EC50 (BJ [8]): 2.02 µM (active)
AC50 (INS1): 5.84 µM (active)
EC50 (BJ [9]): 0.588 µM (active)
EC50 (Protein RecA): 0.481 µM (active)
EC50 (BJ [10]): 5.41 µM (inconclusive)
EC50 (Streptococcus): 14.1 µM (active)

Cc1cc(Cl)cc2c1N[C@H](c1ccncc1)C1CC=CC21 (stereo not given in full)
IC50 [11]: > 99 µM (inactive)
IC50 [12]: > 99 µM (inactive)

CC(CN1CCCCC1)C(=O)O (stereo not given)
EC50 [13]: > 100 µM (inactive)
EC50 [14]: > 100 µM (inactive)

COc1ccc(C)cc1NC(=O)CCS(=O)(=O)c1ccc2c(c1)CC(C)N2C(=O)C1CC1 (stereo not given)
EC50 [15]: > 100 µM (inactive)

Cc1ccc(-c2csc3nnc(SCC(N)=O)n23)cc1
IC50 [16]: > 99 µM (inactive)
IC50 [17]: > 99 µM (inactive)

O=C(O)C1CC(c2cccc(Br)c2)=NO1 (stereo not given)
EC50 [13]: > 100 µM (inactive)
EC50 [14]: > 100 µM (inactive)

Cc1ccc2c(Nc3cc(OCc4ccccc4Br)ccc3Sc3ccc(O)cc3)ncnc2n1
Ki [18]: 5.01 µM (active)
